Measured values: US12708673B2, “Methods and compositions related to peptides and proteins with c-terminal elements” (Sanford Burnham Prebys Medical Discovery Institute, priority 2008, dated 2026)

Tested on: PPC-1 cells
Test: T7 phage internalization into PPC-1 (PPC1) cells at 37° C. (acid wash and titration, or anti-T7 staining and confocal imaging)
Type: cell-based, human
Description: FIG. 2A: Binding of T7 phage to prostate cancer cells depends on the display of a C-terminal arginine on the phage particles. PPC1 cells were incubated with T7 bacteriophage displaying derivatives of the G7 (upper graph) or RPARPAR peptide (SEQ ID NO: 2) (lower graph) at 4° C., and the bound phage was quantified by plaque assay. Binding is expressed in fold over of the non-binding G7 control phage. FIG. 2B: Phage displaying C-terminal arginine is internalized into cultured PPC1 cells (arrow, nuclear internalization; arrowhead, cytoplasmic internalization). A panel of T7 phage clones were incubated at 37° C. with PPC1 cells grown on collagen-coated coverslips, stained with anti T7 antibody and imaged by confocal microscopy.
Phage display. For in vivo phage display, mice were injected intravenously with 10^10 plaque-forming units (pfu) of T7 phage followed by perfusion of the circulatory system and determination of the bound phage in target organs by titration. For cell binding studies on cultured cells (in vitro display) and organ-derived cell suspensions (ex vivo display), the cells were incubated with 10^9 pfu of phage at 4° C., washed, lysed, and quantified by titration. Incubation at 37° C. followed by low pH wash (glycine-HCl, pH 2.5) was used to assess the amount of internalized phage.
For biopanning and phage binding studies (Hoffman, J. A. et al., 2004), cultured cells were grown to confluence and harvested with trypsin and mouse organs were dissociated using Medimachine (BD Biosciences, San Jose, CA). To measure phage binding, 10^6 cells in binding buffer (DMEM containing 1% BSA) were incubated with 10^9 pfu/ml of T7 phage for 1 hour at 4° C. The cells were washed 4 times with the binding buffer, lysed in LB bacterial growth medium containing 1% NP-40, and titrated. Phage internalization assays used the same procedure, except that the cells were incubated with the phage at 37° C., and that an acidic buffer (500 mM sodium chloride, 0.1 M glycine, 1% BSA, pH 2.5) was used instead of binding buffer in the second wash.
Centrifugation on a silicone oil cushion (1.03 g/ml) was used to separate unbound phage from cells during time course experiments. Inhibitors of phage binding and internalization (heparin, chondroitin, glycocalyx removal enzymes, endocytosis inhibitors, free peptides, quantum dots and UV-inactivated phage) were added to the cells 20 minutes prior to incubation with phage. Endocytosis inhibitors used in this study were the following: nystatin (50 μg/ml), genistein (100 μg/ml), chlorpromazine (5 μg/ml), 5-(N-ethyl-N-isopropyl) amiloride (100 μM), wortmannin (10 μM).
Immunofluorescence staining. Cultured cells (2×10^5 cells) were grown in 6-well tissue culture plates on collagen-I coated coverslips (BD Biosciences, San Jose, CA) overnight at 37° C. in 5% CO2, and incubated with 10^8 pfu of T7 phage. The cells were fixed in 4% paraformaldehyde or cold (−20° C.) methanol, and stained with antibodies. Nuclei were stained with DAPI or […]. A polyclonal rabbit anti-T7 antibody was generated in-house as described previously (Laakkonen, P. et al. 2002b), except that an additional phage purification step using […] centrifugation was included. Other primary antibodies used were rat anti-mouse CD31 monoclonal antibody (BD Biosciences), rabbit anti-NRP-1, mouse anti-human Lamp-1, mouse anti-human caveolin (Millipore, Temecula, CA), mouse anti-NRP-1 (Miltenyi Biotec Inc., Auburn, CA), mouse anti-human EEA-1 (BD Biosciences, San Jose, CA). The secondary antibodies, Alexa594 goat antibodies to mouse, rat, and rabbit immunoglobulins and Alexa488 donkey anti-rabbit antibody were from Invitrogen (Carlsbad, CA). Cells and tissue sections were examined by confocal microscopy (Fluoview 500, Olympus America Inc., Center Valley, PA).

Substance: RPARPAR [RPARPAR phage]
- Effect of pre-incubation with UV-inactivated phage on iRGD phage internalization: decreased
- Phage internalization into PPC-1 cells (in words) (37° C.): robust binding and internalization
- Time to perinuclear accumulation (phage, 37° C.): 1 h
- Time to plasma membrane association (phage, 37° C.): 15 min
